# Assay results as given in patent US11865110B2, “Thrombin inhibitors, formulations, and uses thereof” (VERSEON INTERNATIONAL CORPORATION, priority 2018, dated 2024).
# System: platelet activation (mouse thrombin)
# Test: Inhibition of platelet activation in CD-1 mouse plasma
# Format: cell-based
# Settings: CD-1 mouse platelet-rich plasma, Chrono-Lume luminescence, read-out: EC50 towards inhibited platelet activation
# Procedure: Assays for inhibition of platelet activation in mouse plasma were performed by the following procedure. Test compounds and positive controls were first diluted in a three-fold series in DMSO to generate a range of concentrations for each from 1500 to 0.08 μM. 2 μL of each sample solution was then placed in corresponding wells of a 96-well plate (the “assay plate”) containing 88 μL of a platelet-rich plasma (PRP) mix described below. 10 μL of a 10 nM solution of mouse thrombin in assay buffer (described below) was then added to each well of the assay plate. The plate was then shaken on a Lab-Line Instruments Inc. titer plate shaker for 2 minutes at 300 RPM. 10 uL of Chrono-Lume® solution was then added to each well. The plate was again shaken for 3 minutes at 300 RPM. Luminescence data were recorded from a plate reader. Each sample was measured in duplicate and against blanks with and without mouse thrombin to record background and maximum signal measurements. The IC50 data were automatically calculated from the measured luminescence counts by means appreciated by one of skill in the art.
# The various solutions involved in this procedure are described as follows. Assay buffer was made by combining 7.5 mL of 5 M NaCl with 1.19 g of HEPES powder, 0.5 mL of 1 M MgCl2, 1.5 mL of 1 M KCl and 235 mL of water in a 500 mL flask. The solution's pH was adjusted to 7.4 using 10 N NaOH, and then brought up to a final volume of 250 mL using water. A 20 mM solution of H-Gly-Pro-Arg-Pro-OH (GPRP) in this assay buffer was made from commercially obtained powder. The PRP Mix was made by first centrifuging down 600 μL of whole CD-1 mouse blood in 1.8 mL sodium citrate vacutainers at 100×g for 10 minutes at room temperature in an Eppendorf 5810 R centrifuge. The plasma layer was then extracted along with as much as possible of the buffy coat into storage vials. Extractions from multiple animals were often pooled together. To make the final mix, 2.3 mL of these plasma extractions was combined with 7.2 mL of the above assay buffer and 0.5 mL of the 20 mM GPRP solution. […]
row,EC50,Structure (SMILES)
1,0.032 µM,"CC(C)(N)Cn1cccc(-c2cc(NCc3ccc(Cl)s3)n(C(=O)c3ccoc3)n2)c1=O [Compound 9, 1-(2-amino-2-methylpropyl)-3-(5-{[(5-chlorothiophen-2-yl)methyl]amino}-1-(furan-3-carbonyl)-1H-pyrazol-3-yl)-1,2-dihydropyridin-2-one]"
2,15 µM,"CC(C)(C)C(=O)n1nc(-c2cccn(CC(=O)O)c2=O)cc1NCc1ccc(Cl)s1 [Compound 4, 2-[3-(5-{[(5-chlorothiophen-2-yl)methyl]amino}-1-(2,2-dimethylpropanoyl)-1H-pyrazol-3-yl)-2-oxo-1,2-dihydropyridin-1-yl]acetic acid]"
3,15 µM,"CC(C)(C)C(=O)n1nc(-c2cccn(CCC(=O)O)c2=O)cc1NCc1ccc(Cl)s1 [Compound 1, 3-[3-(5-{[(5-chlorothiophen-2-yl)methyl]amino}-1-(2,2-dimethylpropanoyl)-1H-pyrazol-3-yl)-2-oxo-1,2-dihydropyridin-1-yl]propanoic acid]"
